From ChEMBL document CHEMBL1142764, “Anti-HIV properties of cationic fullerene derivatives” (Bioorg Med Chem Lett, 2005)
pEC50: −log10 of the molar value.

Tests used:
[1] = system: Human immunodeficiency virus 2; assay: Effective concentration against HIV-2; assay type: functional, organism-based
[2] = system: Human immunodeficiency virus 1; assay: Effective concentration against HIV-1; assay type: functional, organism-based
CCRF-CEM = assay: Cytostatic activity against CEM cell culture; assay type: functional; conditions: Homo sapiens

SMILES	pEC50 [1]	pEC50 [2]	CC50 (CCRF-CEM) [nM]
CC12C[N+](C)(C)CC34C5c6cc7c8c9c6-c6c5c5c%10c%11c6C6c%12c%13c%14c%15c%16c%17c%18c(c%19c%20c%21c%22c%23c%24c(c%10c%10c(c%12%11)c%14c%11c%10c%24c%22c%10c%20c%18c%15c%10%11)C5C35C=%23CC%215C%1914)C(C%17=C8C1(C[N+](C)(C)CC%16%131)C96)C72 (configuration not stated)	5.60	5.97	12500
CC1C2c3cc4/c5c6c7c8c9c%10c6c4c4c3C3=C6c%11c%12c%13c%14c%15c(c9c9c%16c8c(c8/c(c%17c%18c%19c(c(c%11c%11c%19c%19c%17c8c%16c(c%149)c%19c%13%11)C62)C1C%181C[N+](C)(C)C1)=C\C/C=5)C7)C%10C4C31C[N+](C)(C)CC%12%151 (configuration not stated)	6.70	6.68	2930
CC1C2c3cc4c5c6c3C3=C7c8c9c%10c%11c%12c%13c%14c%15c(c-5c5c%16c%15c%15c%17c%18c%19c%20c%21c%22c(c(c8c8c%22c%22c%20c%18c%18c%15c%14c%11c%18c%22c%108)C72)C1C%211CC=%19C1(C%16%17)C1C[N+](C)(C)CC451)C%13C6C31C[N+](C)(C)CC9%121 (configuration not stated)	6.15	6.46	9040
C[N+]1(C)CC23C4=C5c6c7c8c9c%10c%11c%12c%13c%14c%15c%16c%17c%18c%19c%20c%21c%22c%23c%24c(c6C6%25C[N+](C)(C)CC%236C%21C6C%21=C%20C%18C%18C%20=C%21C(C4c4c%20c(c-%13c(c42)C%12C9C73C1)C%18C%14%17)C6C5%25)c8c1c%10c(c%11%15)c2c%16c%19c%22c2c%241 (configuration not stated)	< 4.60	< 4.60	> 125000
